Measured values from BindingDB's records for doi:10.1016/j.bioorg.2010.11.002 (University of Catania, 2011).

Columns and labels:
[1] = target: Stromelysin-1 (Homo sapiens, UniProt P08254); experiment: Fluorimetric Assay; details: pH 7; 25 °C
[2] = target: Collagenase 3 (Homo sapiens, UniProt P45452); experiment: Fluorimetric Assay; details: pH 7; 25 °C

Stromelysin-1, sequence (P08254 whole entry): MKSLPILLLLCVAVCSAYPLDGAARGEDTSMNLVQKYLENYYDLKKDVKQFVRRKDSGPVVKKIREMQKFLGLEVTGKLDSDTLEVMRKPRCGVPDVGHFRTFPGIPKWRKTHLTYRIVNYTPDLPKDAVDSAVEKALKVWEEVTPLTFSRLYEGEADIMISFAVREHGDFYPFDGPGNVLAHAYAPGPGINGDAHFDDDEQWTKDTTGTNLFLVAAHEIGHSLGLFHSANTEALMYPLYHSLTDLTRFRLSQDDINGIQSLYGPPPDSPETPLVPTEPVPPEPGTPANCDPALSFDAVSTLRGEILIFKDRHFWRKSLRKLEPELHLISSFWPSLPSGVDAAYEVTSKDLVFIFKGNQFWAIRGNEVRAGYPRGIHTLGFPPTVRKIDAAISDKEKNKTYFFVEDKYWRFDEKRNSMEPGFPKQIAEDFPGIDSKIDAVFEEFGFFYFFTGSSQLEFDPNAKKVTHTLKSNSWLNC

Structure (SMILES) | IC50 [1] [µM] | IC50 [2] [µM]
Oc1csc(Nc2nc3ccccc3s2)n1 [2-(benzo[d]-thiazol-2-ylimino)-thiazolidin-4-one, 1a] | 36.7 | –
O=C1N/C(=N/c2nsc3ccccc23)S/C1=C/c1ccccc1 [2-(benzo[d]isothiazol-3-ylimino)-5-benzylidenethiazolidin-4-one, 2b] | – | 32
